Source: patent US5726186A, “Pentacyclic compounds, intermediates, processes, compositions, and methods” (Eli Lilly and Company, priority 1996, dated 1998)

Experiments:
Distal Femur Metaphysis = experiment: Osteoporosis test, distal femur metaphysis X-ray image analysis; format: in vivo, female Sprague Dawley rats (ovariectomized); settings: oral; for Distal Femur Metaphysis (X-ray Image Analysis-Gray Score), percent protection relative to ovariectomy: daily for 35 days, in 20% hydroxypropyl b-cyclodextrin
Source text: Seventy-five day old female Sprague Dawley rats (weight range of 200 to 225 g) were obtained from Charles River Laboratories (Portage, Mich.). The animals were either bilaterally ovariectomized (OVX) or exposed to a Sham surgical procedure at Charles River Laboratories, and then shipped after one week. Upon arrival, they were housed in metal hanging cages in groups of 3 or 4 per cage and had ad libitum access to food (calcium content approximately 0.5%) and water for one week. Room temperature was maintained at 22.2°±1.7° C. with a minimum relative humidity of 40%. The photoperiod in the room was 12 hours light and 12 hours dark. Following the General Preparation Procedure, infra, the rats were treated daily for 35 days (6 rats per treatment group) and sacrificed by carbon dioxide asphyxiation on the 36th day. The 35 day time period was sufficient to allow maximal reduction in bone density, measured as described herein. At the time of sacrifice, the uteri were removed, dissected free of extraneous tissue, and the fluid contents were expelled before determination of wet weight in order to confirm estrogen deficiency associated with complete ovariectomy. […] The uteri were then placed in 10% neutral buffered formalin to allow for subsequent histological analysis. The right femurs were excised and digitilized x-rays generated and analyzed by an image analysis program (NIH image) at the distal metaphysis. The proximal aspect of the tibiae from these animals were also scanned by quantitative computed tomography. In accordance with the above procedures, compounds of the present invention and ethynyl estradiol (EE2) in 20% hydroxypropyl b-cyclodextrin were orally administered to test animals. Distal femur metaphysis data presented in Tables 2 and 3 below are the results of formula I compound treatments compared to intact and ovariectomized test animals. Results are reported as percent protection relative to ovariectomy.

[1] = system: Uterine Eosinophil Peroxidase (EPO); experiment: Uterine Eosinophil Peroxidase (EPO) Assay; format: in vivo, female Sprague Dawley rats (ovariectomized); design: Uterine EPO (V. max): unit not given here; settings: oral, daily for 4 days, OVX rats; for Uterine EPO (V. max): 450 nm
Source text: (§1) Seventy-five day old female Sprague Dawley rats (weight range of 200 to 225 g) were obtained from Charles River Laboratories (Portage, Mich.). The animals were either bilaterally ovariectomized (OVX) or exposed to a Sham surgical procedure at Charles River Laboratories, and then shipped after one week. Upon arrival, they were housed in metal hanging cages in groups of 3 or 4 per cage and had ad libitum access to food (calcium content approximately 0.5%) and water for one week. Room temperature was maintained at 22.2°±1.7° C. with a minimum relative humidity of 40%. The photoperiod in the room was 12 hours light and 12 hours dark.
(§2) Dosing Regimen Tissue Collection. After a one week acclimation period (therefore, two weeks post-OVX) daily dosing with test compound was initiated. 17a-ethynyl estradiol or the test compound were given orally, unless otherwise stated, as a suspension in 1% carboxymethylcellulose or dissolved in 20% cyclodextrin. Animals were dosed daily for 4 days. Following the dosing regimen, animals were weighed and anesthetized with a ketamine: Xylazine (2:1, V:V) mixture and a blood sample was collected by cardiac puncture. The animals were then sacrificed by asphyxiation with CO2, the uterus was removed through a midline incision, and a wet uterine weight was determined.
Uterine Eosinophil Peroxidase (EPO) Assay. Uteri were kept at 4° C. until time of enzymatic analysis. The uteri were then homogenized in 50 volumes of 50 mM Tris buffer (pH-8.0) containing 0.005% Triton X-100. Upon addition of 0.01% hydrogen peroxide and 10 mM O-phenylenediamine (final concentrations) in Tris buffer, increase in absorbance was monitored for one minute at 450 nm. The presence of eosonophils in the uterus is an indication of estrogenic activity of a compound. The maximal velocity of a 15 second interval was determined over the initial, linear portion of the reaction curve.
As is expressed in the below data, estrogenicity also was assessed by evaluating the adverse response of eosinophil infiltration into the uterus.
(§3) The data presented in the Tables 1 below reflects the response of 5 to 6 rats per treatment.

Serum Cholesterol = experiment: Serum cholesterol analysis in ovariectomized rats; format: in vivo, female Sprague Dawley rats (ovariectomized); settings: oral, OVX rats
Source text: as §1, §2
Cholesterol Analysis. Blood samples were allowed to clot at room temperature for 2 hours, and serum was obtained following centrifugation for 10 minutes at 3000 rpm. Serum cholesterol was determined using a Boehringer Mannheim Diagnostics high performance cholesterol assay. Briefly the cholesterol was oxidized to cholest-4-en-3-one and hydrogen peroxide. The hydrogen peroxide was then reacted with phenol and 4-aminophenazone in the presence of peroxidase to produce a p-quinone imine dye, which was read spectrophotemetrically at 500 nm. Cholesterol concentration was then calculated against a standard curve. The entire assay was automated using a Biomek Automated Workstation.
as §3

uterus = experiment: Wet uterine weight in ovariectomized rats (post-menopausal model); format: in vivo, female Sprague Dawley rats (ovariectomized); settings: oral, OVX rats
Method: In the examples illustrating the methods, a post-menopausal model was used in which effects of different treatments upon circulating lipids were determined.
as §1, §2, §3

[2] = system: MCF-7 breast adenocarcinoma cells; experiment: MCF-7 Proliferation Assay (tritiated thymidine); format: cell-based; settings: Homo sapiens, MCF7; MCF-7 cells, 48 hours, tritiated thymidine pulse 4 hours
Method: MCF-7 breast adenocarcinoma cells (ATCC HTB 22) were maintained in MEM (minimal essential medium, phenol red-free, Sigma, St. Louis, Mo.) supplimented with 10% fetal bovine serum […] (V/V), L-glutamine (2 mM), sodium pyruvate (1 mM), HEPES {(N-[2-hydroxyethyl]piperazine-N'-[2-ethanesulfonic acid]10 mM)}, non-essential amino acids and bovine insulin (1 ug/mL) (maintenance medium). Ten days prior to assay, MCF-7 cells were switched to maintenance medium supplemented with 10% dextran coated charcoal stripped fetal bovine serum (DCC-FBS) assay medium) in place of 10% FBS to deplete internal stores of steroids. MCF-7 cells were removed from maintenance flasks using cell dissociation medium (Ca++/Mg++ free HBSS (phenol red-free) supplemented with 10 mM HEPES and 2 mM EDTA). Cells were washed twice with assay medium and adjusted to 80,000 cells/mL. Approximately […] (8,000 cells) were added to flat-bottom microculture wells (Costar 3596) and incubated at 37° C. in a 5% CO2 humidified incubator for 48 hours to allow for cell adherence and equilibration after transfer. Serial dilutions of drugs or DMSO as a diluent control were prepared in assay medium and […] to triplicate microcultures followed by […] assay medium for a final volume of […]. After an additional 48 hours at 37° C. in a 5% CO2 humidified incubator, microcultures were pulsed with tritiated thymidine (1 uCi/well) for 4 hours. Cultures were terminated by freezing at -70° C. for 24 hours followed by thawing and harvesting of microcultures using a Skatron Semiautomatic Cell Harvester. Samples were counted by liquid scintillation using a Wallac BetaPlace b counter. Results in Table 3 below show the IC50 for certain compounds of the present invention.

[3] = Rattus norvegicus, 96 h, daily for 4 days, read-out: Serum Cholesterol (% decrease vs. OVX)
[4] = Rattus norvegicus, 96 h, daily for 4 days, read-out: Uterine Weight (% increase vs. OVX)

| SMILES | Uterine EPO (V. max) ([1]; 0.1 mg/kg) | inhibition in vivo at 0.1 mg/kg (Serum Cholesterol; [3]) | change in vivo at 0.1 mg/kg (uterus; [4]) | IC50 [2] | Uterine EPO (V. max) ([1]; 1.0 mg/kg) | inhibition in vivo at 1 mg/kg (Serum Cholesterol; [3]) | change in vivo at 1 mg/kg (uterus; [4]) | other results |
| --- | --- | --- | --- | --- | --- | --- | --- | --- |
| C#CC1(O)CCC2C3CCc4cc(O)ccc4C3CCC21C (stereo not drawn) [EE2, 17α-ethynyl estradiol, reference compound] | 116.4 | 81.4% | 86.3% |  |  |  |  | Distal Femur Metaphysis (X-ray Image Analysis-Gray Score), percent protection relative to ovariectomy (Distal Femur Metaphysis; 0.1 mg/kg): 62.4%; Prevention of bone loss (result in words) (Distal Femur Metaphysis; OVX rats, 35 days): prevented this loss; Eosinophil infiltration into the uterus (stromal layer) [1]: substantial, expected increase in eosinophil infiltration; Serum cholesterol (result in words) (Serum Cholesterol; EE2 at 0.1 mg/kg/day): caused a decrease in serum cholesterol; Uterine weight (result in words) (uterus; EE2 at 0.1 mg/kg/day): uterine weight was substantially greater than the uterine weight of ovariectomized test animals |
| COc1ccc2c(c1)OC(c1ccc(OCCN3CCCCC3)cc1)c1c-2sc2cc(OC)ccc12 (stereo not drawn) [Example 2, 3,9-Dimethoxy-6-[4-[2-(1-piperidinyl)ethoxy]phenyl]-6-H-[1]benzothieno[3,2-c][1]benzopyran] |  |  |  | 100 nM |  |  |  |  |
| O=C(Oc1ccc2c(c1)OC(c1ccc(OCCN3CCCCC3)cc1)c1c-2sc2cc(OC(=O)c3ccccc3)ccc12)c1ccccc1 (stereo not drawn) [Example 3, 3,9-Bis(benzoyloxy)-6-[4-[2-(1-piperidinyl)ethoxy]phenyl]-6-H-[1]benzothieno[3,2-c][1]benzopyran] | 4.2 | 51.5% | 32.5% | 3 nM | 3.0 | 50.8% | 7.4% |  |
| CC(C)(C)C(=O)Oc1ccc2c(c1)OC(c1ccc(OCCN3CCCCC3)cc1)c1c-2sc2cc(OC(=O)C(C)(C)C)ccc12 (stereo not drawn) [Example 4, 3,9-Bis(pivaloyloxy)-6-[4-[2-(1-piperidinyl)ethoxy]phenyl]-6-H-[1]benzothieno[3,2-c][1]benzopyran] | 3.3 | 62.6% | 10% | 5 nM | 3.3 | 48.2% | 15.3% |  |
| c1ccc2c(c1)OC(c1ccc(OCCN3CCCCC3)cc1)c1c-2sc2ccccc12 (stereo not drawn) [Example 7, 6-[4-[2-(1-piperidinyl)ethoxy]phenyl]-6-H-[1]benzothieno[3,2-c][1]benzopyran] | 4.8 | 39.8% | 28.9% |  | 6.6 | 65.5% | 31.2% | Uterine EPO (V. max) ([1]; 10.0 mg/kg): 3.6; inhibition in vivo at 10 mg/kg (Serum Cholesterol; [3]): 54%; change in vivo at 10 mg/kg (uterus; [4]): 14.7% |
| Oc1ccc2c(c1)OC(c1ccc(OCCN3CCCC3)cc1)c1c-2sc2cc(O)ccc12 (stereo not drawn) [Example 8, 3,9-Dihydroxy-6-[4-[2-(1-pyrrolidinyl)ethoxy]phenyl]-6-H-[1]benzothieno[3,2-c][1]benzopyran] | 4.8 | 38.5% | 27.4% |  | 4.8 | 68% | 27.2% | Uterine EPO (V. max) ([1]; 0.01 mg/kg): 2.1; inhibition in vivo at 0.01 mg/kg (Serum Cholesterol; Rattus norvegicus, 96 h, 0.01 mg/kg, daily for 4 days, read-out: Serum Cholesterol (% decrease vs. OVX)): 50.5%; change in vivo at 0.01 mg/kg (uterus; Rattus norvegicus, 96 h, 0.01 mg/kg, daily for 4 days, read-out: Uterine Weight (% increase vs. OVX)): 10.2% |
| CN(C)CCOc1ccc(C2Oc3cc(O)ccc3-c3sc4cc(O)ccc4c32)cc1 (stereo not drawn) [Example 9, 3,9-Dihydroxy-6-[4-(2-dimethylaminoethoxy)phenyl]-6-H-[1]benzothieno[3,2-c][1]benzopyran] | 52.2 | 40.1% | 77.8% |  |  |  |  |  |
| Oc1ccc2c(c1)OC(c1ccc(OCCN3CCCCC3)cc1)c1c-2ccc2cc(O)ccc12 (stereo not drawn) [Example 11b, 2,8-Dihydroxy-5-[4-[2-(1-piperidinyl)ethoxy]phenyl]-5H-benzo[b]naphtho[2,1-d]pyran] | 9.3 | 66.4% | 13.6% |  | 12.0 | 73.9% | 7.6% | Distal Femur Metaphysis (X-ray Image Analysis-Gray Score), percent protection relative to ovariectomy (Distal Femur Metaphysis; 0.01 mg/kg): 45.6%; Distal Femur Metaphysis (X-ray Image Analysis-Gray Score), percent protection relative to ovariectomy (Distal Femur Metaphysis; 0.1 mg/kg): 38.5%; Distal Femur Metaphysis (X-ray Image Analysis-Gray Score), percent protection relative to ovariectomy (Distal Femur Metaphysis; 1.0 mg/kg): 58.5%; Distal Femur Metaphysis (X-ray Image Analysis-Gray Score), percent protection relative to ovariectomy (Distal Femur Metaphysis; 10.0 mg/kg): 37.3%; Uterine EPO (V. max) ([1]; 10.0 mg/kg): 7.8; inhibition in vivo at 10 mg/kg (Serum Cholesterol; [3]): 61.4%; change in vivo at 10 mg/kg (uterus; [4]): -4.1% |
